# Experimental data: ChEMBL document CHEMBL1201862, “PubChem BioAssay data set” (2004)
# Calls of active or inactive are those of the source.
# What was measured:
# [1] = target: T1, DNA repair protein RAD52 homolog (Homo sapiens, UniProt P43351); type: functional, biochemical
# T1 sequence (P43351 whole entry): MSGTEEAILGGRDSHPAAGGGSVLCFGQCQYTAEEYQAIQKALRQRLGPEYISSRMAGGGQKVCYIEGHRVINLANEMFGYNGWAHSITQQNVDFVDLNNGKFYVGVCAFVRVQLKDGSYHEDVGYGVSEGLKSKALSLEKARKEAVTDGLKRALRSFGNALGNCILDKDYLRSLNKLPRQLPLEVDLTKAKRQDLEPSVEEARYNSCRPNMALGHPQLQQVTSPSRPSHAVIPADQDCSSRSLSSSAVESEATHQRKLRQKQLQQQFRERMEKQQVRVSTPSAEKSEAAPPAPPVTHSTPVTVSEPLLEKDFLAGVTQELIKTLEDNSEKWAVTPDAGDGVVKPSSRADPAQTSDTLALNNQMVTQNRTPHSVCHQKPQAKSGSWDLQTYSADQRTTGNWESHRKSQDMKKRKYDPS
# [2] = P. falciparum Dd2 growth inhibitors, dose response, SYBR Green, dry powder samples, set 9 (AID 1159568); type: functional, cell-based
# [3] = cytotoxicity toward NIH3T3 fibroblasts, dose response, counter-screen, cell-based, ATP luminescence, mouse fibroblasts (AID 2010); type: functional;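 note: cells exposed to compound for about 90 hours before reading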
# [4] = growth suppression of beta-catenin-knockout colon cells, dose response, cell-based, HCT116, human colon tumor (AID 1045); type: functional;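 note: HCT116 colon tumor cells with beta catenin knocked out; cells exposed to compound for 60 hours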
# [5] = growth suppression of PTEN-null colon cells, dose response, cell-based, HCT116 PTEN knockout (AID 1047); type: functional;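 note: HCT116 colon tumor cells with PTEN knocked out; cells exposed to compound for 60 hours before readout; potency for loss of cell viability measured by luminescence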
# [6] = inhibitors of intracellular T. cruzi replication, confirmation, NIH3T3 host cells, beta-gal luminescence (AID 2044); type: functional, cell-based;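 note: intracellular parasites grown in NIH/3T3 mouse fibroblasts as host cells; luminescent beta-galactosidase reporter signal from transgenic T. cruzi replicating inside host cells; inhibitors lower the luminescence signal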
# Caspase-3 = target: T2, Caspase-3 (Homo sapiens, UniProt P42574); type: functional;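 note: Dose-response selectivity test against caspase-3 for candidate inhibitors of sentrin-specific proteases (SENPs)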
# T2 sequence (P42574 whole entry): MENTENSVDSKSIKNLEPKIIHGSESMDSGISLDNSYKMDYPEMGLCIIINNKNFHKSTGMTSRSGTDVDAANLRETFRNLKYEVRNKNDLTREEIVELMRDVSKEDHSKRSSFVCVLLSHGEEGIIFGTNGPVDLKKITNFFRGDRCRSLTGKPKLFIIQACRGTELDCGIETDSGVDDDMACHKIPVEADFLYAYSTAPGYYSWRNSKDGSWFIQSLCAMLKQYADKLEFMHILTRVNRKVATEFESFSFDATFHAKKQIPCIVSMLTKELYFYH
# [7] = target: T3, Sentrin-specific protease 7 (Homo sapiens, UniProt Q9BQF6); type: functional;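 note: Luminescence-based dose-response confirmation of ultra-high-throughput screening hits, measuring inhibition of SENP7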
# T3 sequence (Q9BQF6 whole entry): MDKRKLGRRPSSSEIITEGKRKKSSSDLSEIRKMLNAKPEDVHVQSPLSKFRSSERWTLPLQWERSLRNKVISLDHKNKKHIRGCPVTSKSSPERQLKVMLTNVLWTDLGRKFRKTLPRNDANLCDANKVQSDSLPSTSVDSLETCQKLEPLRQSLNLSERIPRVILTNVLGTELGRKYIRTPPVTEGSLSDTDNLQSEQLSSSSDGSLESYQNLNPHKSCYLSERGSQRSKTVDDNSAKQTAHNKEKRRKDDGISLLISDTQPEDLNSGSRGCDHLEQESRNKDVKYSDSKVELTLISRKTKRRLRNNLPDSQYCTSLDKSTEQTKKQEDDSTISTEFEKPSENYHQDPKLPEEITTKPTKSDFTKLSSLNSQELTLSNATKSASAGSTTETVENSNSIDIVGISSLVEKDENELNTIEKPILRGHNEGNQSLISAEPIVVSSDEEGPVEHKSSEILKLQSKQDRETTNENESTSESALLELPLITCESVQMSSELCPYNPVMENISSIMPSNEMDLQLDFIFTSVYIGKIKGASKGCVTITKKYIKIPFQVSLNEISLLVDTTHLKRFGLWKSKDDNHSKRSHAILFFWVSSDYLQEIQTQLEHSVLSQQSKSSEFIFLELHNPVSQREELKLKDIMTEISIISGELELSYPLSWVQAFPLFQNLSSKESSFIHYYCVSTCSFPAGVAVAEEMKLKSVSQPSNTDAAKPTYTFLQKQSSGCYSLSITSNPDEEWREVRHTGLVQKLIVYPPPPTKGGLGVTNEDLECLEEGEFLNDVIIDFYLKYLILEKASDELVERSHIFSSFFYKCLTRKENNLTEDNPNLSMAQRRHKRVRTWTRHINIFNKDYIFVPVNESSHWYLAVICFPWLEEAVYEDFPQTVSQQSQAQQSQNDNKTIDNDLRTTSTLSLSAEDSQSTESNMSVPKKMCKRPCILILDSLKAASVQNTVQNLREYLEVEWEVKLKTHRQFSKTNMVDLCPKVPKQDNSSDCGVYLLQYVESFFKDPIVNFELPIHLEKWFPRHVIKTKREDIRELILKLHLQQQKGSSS
# [8] = target: T4, Sentrin-specific protease 8 (Homo sapiens, UniProt Q96LD8); type: functional;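 note: luminescence read-out of SENP8 inhibition, dose-response confirmation following an ultra-high-throughput screen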
# T4 sequence (Q96LD8 whole entry): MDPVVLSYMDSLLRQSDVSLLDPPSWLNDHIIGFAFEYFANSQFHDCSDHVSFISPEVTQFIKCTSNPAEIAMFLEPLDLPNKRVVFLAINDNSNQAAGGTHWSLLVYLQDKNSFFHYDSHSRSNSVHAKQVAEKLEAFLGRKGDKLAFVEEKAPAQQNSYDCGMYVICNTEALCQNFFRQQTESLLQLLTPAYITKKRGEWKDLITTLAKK
# [9] = A549 cell cytotoxicity, dose response, cytotoxicity control, plate reader, cherry-pick, antagonist series (AID 743412); type: functional, cell-based
# [10] = target: T5, Sentrin-specific protease 6 (Homo sapiens, UniProt Q9GZR1); type: functional;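 note: Luminescence-based dose-response confirmatory assay of SENP6 inhibition, following up an ultra-high-throughput screen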
# T5 sequence (Q9GZR1 whole entry): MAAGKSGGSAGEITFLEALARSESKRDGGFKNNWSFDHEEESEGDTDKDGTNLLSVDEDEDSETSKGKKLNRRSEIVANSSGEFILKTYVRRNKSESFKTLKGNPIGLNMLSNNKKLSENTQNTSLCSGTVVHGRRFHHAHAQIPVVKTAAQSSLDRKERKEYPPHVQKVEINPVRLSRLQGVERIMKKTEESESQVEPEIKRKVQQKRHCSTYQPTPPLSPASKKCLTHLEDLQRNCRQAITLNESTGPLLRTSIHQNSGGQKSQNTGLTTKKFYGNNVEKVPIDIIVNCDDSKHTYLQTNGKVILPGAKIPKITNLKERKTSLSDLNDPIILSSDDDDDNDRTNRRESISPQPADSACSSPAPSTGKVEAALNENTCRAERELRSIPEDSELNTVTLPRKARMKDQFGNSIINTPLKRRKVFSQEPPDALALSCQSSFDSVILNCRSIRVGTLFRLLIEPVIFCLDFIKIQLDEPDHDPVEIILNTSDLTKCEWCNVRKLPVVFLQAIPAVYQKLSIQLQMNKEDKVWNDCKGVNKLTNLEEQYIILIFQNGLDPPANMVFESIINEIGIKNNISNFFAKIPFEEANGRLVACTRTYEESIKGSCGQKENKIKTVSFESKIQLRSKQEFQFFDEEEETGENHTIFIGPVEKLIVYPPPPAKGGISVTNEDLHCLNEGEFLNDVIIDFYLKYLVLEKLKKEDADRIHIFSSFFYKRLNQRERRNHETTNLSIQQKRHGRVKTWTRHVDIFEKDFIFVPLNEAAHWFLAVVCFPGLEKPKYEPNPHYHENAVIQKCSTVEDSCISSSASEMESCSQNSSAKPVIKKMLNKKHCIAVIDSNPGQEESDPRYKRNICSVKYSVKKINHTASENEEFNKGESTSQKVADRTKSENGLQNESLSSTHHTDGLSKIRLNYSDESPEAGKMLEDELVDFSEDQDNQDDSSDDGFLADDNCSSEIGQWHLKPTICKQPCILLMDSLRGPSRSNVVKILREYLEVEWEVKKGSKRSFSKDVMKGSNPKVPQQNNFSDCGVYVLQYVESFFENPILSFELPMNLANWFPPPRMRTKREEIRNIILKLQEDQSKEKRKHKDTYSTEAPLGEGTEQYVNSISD
# [11] = LGR2 antagonists, dose response, cell-based, HEK293, CRE-luciferase reporter, cherry pick, set 2 (AID 743343); type: functional;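 note: transfected cells were stimulated with diluted bursicon conditioned medium after compound addition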
# [12] = MC4R antagonists, dose response, counter-screen for LGR2 antagonist project, cell-based, plate reader, cherry pick (AID 743444); type: functional;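 note: transfected HEK 293 cells stimulated with alpha-MSH peptide; potency of inhibitors of the alpha-MSH evoked signal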
# [13] = HepG2 cell cytotoxicity, dose response, cytotoxicity control, plate reader, cherry-pick, antagonist series (AID 743416); type: functional, cell-based
# [14] = inhibitors of SNCA 5'UTR-driven reporter translation, confirmation, H4 neuroglioma cells, luminescence (AID 1988); type: functional, cell-based
# [15] = Luminescence Cell-Based Dose Response HTS to Identify Inhibitors of 5'UTR Stem-Loop Driven Prion Protein mRNA Translation in H4 Neuroglioblastoma Cells. [Related pubchem assays: 1827 (Project Summary), 1813 (Primary HTS)]; type: functional
# [16] = NIH:OVCAR-3 ovarian cancer cell cytotoxicity, dose response, PAX8 inhibitor project, plate reader, dry powder samples (AID 743044); type: functional, cell-based
# Paired box protein Pax-8 = Paired box protein Pax-8 (Homo sapiens, UniProt Q06710); test: inhibitors of PAX8-driven TPO luciferase reporter, dose response, RMG-I cells, cherry-pick (AID 687027); type: functional, cell-based;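 note: luciferase reporter driven by Pax8 target thyroperoxidase promoter measured by SteadyGlo luminescence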
# [17] = cytotoxicity in OVCAR8 ovarian cancer cells, dose response, PAX8 project, cell-based, plate reader, dry powder samples (AID 743197); type: functional; conditions: OVCAR-8
# [18] = IGROV1 ovarian cancer cell cytotoxicity, dose response, PAX8 inhibitor project, plate reader, dry powder samples (AID 743043); type: functional, cell-based; conditions: IGROV-1
# [19] = IOSE-T80 ovarian epithelial cell cytotoxicity, dose response, cytotoxicity control for PAX8 inhibitor project, plate reader, dry powder samples (AID 743045); type: functional, cell-based
# Estrogen receptor beta [20] = target: T6, Estrogen receptor beta (Homo sapiens, UniProt Q92731);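 note: recombinant ER-beta bound to coactivator SRC1 peptide in presence of estradiol agonist; inhibitors block coactivator peptide binding and lower the FRET signal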
# Estrogen receptor beta [21] = target: T6, Estrogen receptor beta; test: ERβ–SRC-3 coactivator interaction inhibitors, confirmation, orthogonal assay, biochemical, ELISA, streptavidin-HRP readout (AID 1060)
# [22] = intracellular Trypanosoma cruzi inhibitors in host cells – cell-based, plate reader, cherry-pick samples, set 3, dose response (AID 651818); type: functional;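 note: compounds incubated with infected cells for about four days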
# [23] = non-specific cell cytotoxicity, dose response, cytotoxicity control for PAX8 inhibitor project, plate reader, dry powder samples (AID 743021); type: functional, cell-based
# [24] = HeLa 2N DNA content increase, dose response, cell-based, IC50 (AID 1117349); type: functional
# [25] = HeLa 4N DNA content increase, dose response, cell-based, IC50 (AID 1117351); type: functional
# Sequence of Paired box protein Pax-8 (Q06710 whole entry): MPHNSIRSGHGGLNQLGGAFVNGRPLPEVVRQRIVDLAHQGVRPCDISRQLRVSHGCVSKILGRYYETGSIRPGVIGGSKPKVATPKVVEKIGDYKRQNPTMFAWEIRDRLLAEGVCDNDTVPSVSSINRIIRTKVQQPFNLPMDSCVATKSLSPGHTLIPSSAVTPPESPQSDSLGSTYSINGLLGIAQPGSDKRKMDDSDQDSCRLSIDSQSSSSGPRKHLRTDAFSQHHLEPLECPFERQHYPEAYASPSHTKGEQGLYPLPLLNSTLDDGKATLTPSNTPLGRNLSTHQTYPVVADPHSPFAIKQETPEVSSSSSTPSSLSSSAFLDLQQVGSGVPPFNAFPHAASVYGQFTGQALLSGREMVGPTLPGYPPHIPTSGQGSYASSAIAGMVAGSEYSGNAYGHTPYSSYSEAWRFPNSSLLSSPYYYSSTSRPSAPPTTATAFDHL
# T6 sequence (Q92731 whole entry): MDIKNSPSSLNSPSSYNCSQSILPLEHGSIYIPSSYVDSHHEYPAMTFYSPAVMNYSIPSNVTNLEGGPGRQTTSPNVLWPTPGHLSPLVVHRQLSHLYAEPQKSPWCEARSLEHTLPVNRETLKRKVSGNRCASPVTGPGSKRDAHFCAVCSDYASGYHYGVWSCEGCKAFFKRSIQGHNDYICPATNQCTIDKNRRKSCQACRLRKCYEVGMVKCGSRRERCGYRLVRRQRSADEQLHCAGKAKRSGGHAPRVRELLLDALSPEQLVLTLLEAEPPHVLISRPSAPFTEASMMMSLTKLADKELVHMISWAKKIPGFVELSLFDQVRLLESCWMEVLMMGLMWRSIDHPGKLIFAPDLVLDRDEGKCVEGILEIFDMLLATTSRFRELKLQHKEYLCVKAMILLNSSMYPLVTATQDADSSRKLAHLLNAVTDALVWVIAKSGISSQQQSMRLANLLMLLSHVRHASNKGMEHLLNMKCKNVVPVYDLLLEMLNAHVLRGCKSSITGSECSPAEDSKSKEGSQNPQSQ
smiles,measurement,setting,value
CCN(CC)CCCN(C(=O)c1ccc(OC)cc1)c1nc(-c2ccc(OC)cc2)cs1,AC50,[1],18.1 µM (active)
O=S(=O)(c1cccs1)N1CCCCN2[C@H](CO)[C@H](c3ccc(/C=C/c4ccccc4)cc3)[C@H]2C1,AC50,[2],3.42 µM (active)
CN(C)CCCn1c(SCC(=O)N2c3ccccc3Sc3ccccc32)nc2ccccc2c1=O,EC50,[3],> 60 µM (not active)
same,EC50,[4],4.73 µM (active)
same,EC50,[5],5.64 µM (active)
same,AC50,[1],17.1 µM (active)
same,EC50,[6],0.268 µM (active)
C[C@@H]1CN([C@H](C)CO)C(=O)c2cccc(NC(=O)c3ccc(-c4nccs4)cc3)c2O[C@H]1CN(C)C(=O)Nc1ccc(C(F)(F)F)cc1,AC50,[2],7.49 µM (active)
COc1ccc(C(=O)Nc2ccc3ccccc3n2)c(OC)c1OC,IC50,Caspase-3,6.1 µM (active)
same,IC50,[7],2.37 µM (active)
same,IC50,[8],> 100 µM (inactive)
same,AC50,[9],> 52 µM (inactive)
same,IC50,[10],2.95 µM (active)
same,AC50,[11],7.06 µM (active)
same,AC50,[12],6.75 µM (active)
same,AC50,[13],> 52 µM (inactive)
COc1ccc(-c2ccccc2[C@@H]2[C@@H](C#N)N(C(=O)NC3CCCCC3)[C@H]2CO)cc1,AC50,[2],7.06 µM (active)
Cc1cnc(NC(=O)COc2ccccc2Cl)s1,EC50,[14],1.25 µM (active)
same,AC50,[9],> 52 µM (inactive)
same,AC50,[11],2.33 µM (active)
same,AC50,[12],2.3 µM (active)
same,EC50,[15],0.491 µM (active)
Cc1ccc(S(=O)(=O)N(C)C[C@H]2Oc3cc(C#Cc4ccncc4)ccc3S(=O)(=O)N([C@@H](C)CO)C[C@H]2C)cc1,AC50,[16],4.57 µM (active)
same,AC50,Paired box protein Pax-8,3.15 µM (active)
same,AC50,[17],30.8 µM (active)
same,AC50,[18],45.3 µM (active)
same,AC50,[19],51.6 µM (active)
C[C@@H]1CCCCO[C@@H](CN(C)S(=O)(=O)c2ccc(F)cc2)[C@@H](C)CN([C@@H](C)CO)C(=O)c2cc(N(C)C)ccc2O1,AC50,[2],2.56 µM (active)
O=S(=O)(NCC(O)COCc1ccco1)c1cccs1 (configuration not stated),IC50,Estrogen receptor beta [20],20.6 µM (active)
same,IC50,Estrogen receptor beta [21],14 µM (not active)
COc1ccc(S(=O)(=O)N(C)C[C@H]2Oc3c(NC(=O)Nc4ccc(C(F)(F)F)cc4)cccc3C(=O)N([C@@H](C)CO)C[C@H]2C)cc1,AC50,[16],66.2 µM (active)
same,AC50,Paired box protein Pax-8,7.04 µM (active)
same,AC50,[22],7.67 µM (active)
same,AC50,[23],51 µM (active)
CC(=O)Nc1ccn(C2COC(COC(=O)c3ccccc3)O2)c(=O)n1 (configuration not stated),IC50,[24],> 10 µM (inactive)
same,IC50,[25],> 10 µM (inactive)
O=C(Nc1ccc(F)cc1)N1C[C@@H]2N[C@H](C1)[C@@H]2c1ccc(/C=C/c2ccccc2)cc1,AC50,Paired box protein Pax-8,10.7 µM (active)
same,AC50,[17],26 µM (active)
same,AC50,[23],23.6 µM (active)
CN(C)CCNC(=O)c1cccc2nc3c(ccc4ccccc43)nc12,AC50,[1],0.501 µM (active)
CO[C@@H]1[C@@H](OC)[C@H](C)[C@@](O)(CC(=O)O)O[C@H]1[C@H](C)[C@H]1O[C@@]2(CC[C@@](C)([C@H]3CC[C@@](C)([C@@H]4O[C@@H]([C@H]5O[C@](C)(O)[C@H](C)C[C@@H]5C)C[C@@H]4OC4C[C@H](OC)[C@@H](OC)[C@H](C)O4)O3)O2)C[C@H](O)[C@H]1C (some centres not stated),IC50,[24],> 10 µM (inactive)
same,IC50,[25],> 10 µM (inactive)
